Test results reported in patent publication US11072585B2 (PharmAkea, Inc., priority 2015, dated 2021).
pIC50: −log10 of the molar value. Where a name gives a salt, the structure may show the parent alone.

Molecular target: human LOXL2 (Homo sapiens (Human), UniProt Q9Y4K0)
Experiment: Human LOXL2 amine oxidase activity assay (Amplex Red)
Type: biochemical
Settings: concentrated conditioned media from CHO cells stably expressing human LOXL2; 2 h at 37° C. with compound; DAP substrate
In short: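 Concentrated conditioned medium from CHO cells stably expressing human LOXL2 was preincubated with compound for 2 h at 37 °C in 50 mM borate, pH 8. 1,5-diaminopentane substrate and Amplex Red/HRP were then added. Fluorescence (544/590) was read kinetically every 2 min for 1 h, with activity taken from the linear slope.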

human LOXL2, sequence (Q9Y4K0 26-774): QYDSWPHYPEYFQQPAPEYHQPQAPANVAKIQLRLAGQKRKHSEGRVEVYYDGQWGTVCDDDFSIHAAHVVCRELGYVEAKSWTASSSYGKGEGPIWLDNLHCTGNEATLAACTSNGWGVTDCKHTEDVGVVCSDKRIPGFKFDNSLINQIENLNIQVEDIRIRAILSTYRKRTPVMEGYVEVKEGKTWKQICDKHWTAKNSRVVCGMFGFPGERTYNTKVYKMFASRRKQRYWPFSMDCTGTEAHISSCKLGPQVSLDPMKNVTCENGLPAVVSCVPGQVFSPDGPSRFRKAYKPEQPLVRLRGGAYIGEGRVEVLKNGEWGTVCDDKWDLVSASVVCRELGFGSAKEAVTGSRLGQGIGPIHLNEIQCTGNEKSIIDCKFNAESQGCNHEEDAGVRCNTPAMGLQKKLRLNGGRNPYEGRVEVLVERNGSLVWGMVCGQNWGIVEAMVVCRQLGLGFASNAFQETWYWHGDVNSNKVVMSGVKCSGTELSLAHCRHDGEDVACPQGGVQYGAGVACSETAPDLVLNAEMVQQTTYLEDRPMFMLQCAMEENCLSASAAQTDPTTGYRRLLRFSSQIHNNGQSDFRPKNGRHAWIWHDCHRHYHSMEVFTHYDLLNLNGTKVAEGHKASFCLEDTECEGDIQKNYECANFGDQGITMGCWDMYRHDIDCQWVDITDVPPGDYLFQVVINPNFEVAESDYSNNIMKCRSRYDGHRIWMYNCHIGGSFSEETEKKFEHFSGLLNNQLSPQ

Row | SMILES | pIC50
1 | N=C(N)NC(=O)Cn1ccc2c(Oc3cc(CN)cc(C(F)(F)F)n3)cccc21 [Compound 1-234, 2-(4-((4-(Aminomethyl)-6-(trifluoromethyl)pyridin-2-yl)oxy)-1H-indol-1-yl)-N-carbamimidoylacetamide dihydrochloride] | < 6.00
2 | NCc1cc(NC(=O)c2cccc(C(=O)O)c2)nc(C(F)(F)F)c1 [Compound 1-239, 3-((4-(Aminomethyl)-6-(trifluoromethyl)pyridin-2-yl)carbamoyl)benzoic acid trifluoroacetate] | > 6.52
3 | NCc1cc(Oc2cccc3[nH]ccc23)nc(C(F)(F)F)c1 [Compound 1-58, (2-((1H-Indol-4-yl)oxy)-6-(trifluoromethyl)pyridin-4-yl)methanamine] | > 6.52
4 | NCc1cc(Oc2cccc(C(=O)N3CC[C@@H](N)C3)c2)nc(C(F)(F)F)c1 [Compound 1-22, (R)-(3-((4-(Aminomethyl)-6-(trifluoromethyl)pyridin-2-yl)oxy)phenyl)(3-aminopyrrolidin-1-yl)methanone dihydrochloride] | > 6.52
5 | NCc1cc(NCc2cccc(C(=O)Nc3ccccc3)c2)nc(C(F)(F)F)c1 [Compound 1-105, 3-(((4-(Aminomethyl)-6-(trifluoromethyl)pyridin-2-yl)amino)methyl)-N-phenylbenzamide hydrochloride] | > 6.52
6 | NCc1cc(Oc2cccc(C(=O)N3CC[C@H](O)C3)c2)nc(C(F)(F)F)c1 [Compound 1-17, (S)-(3-((4-(Aminomethyl)-6-(trifluoromethyl)pyridin-2-yl)oxy)phenyl)(3-hydroxypyrrolidin-1-yl)methanone hydrochloride] | > 6.52
7 | Cc1cc(=O)n(Cc2cc(CN)cc(C(F)(F)F)n2)c(=O)n1Cc1ccccc1 [Compound 1-134, 3-((4-(Aminomethyl)-6-(trifluoromethyl)pyridin-2-yl)methyl)-1-benzyl-6-methylpyrimidine-2,4(1H,3H)-dione hydrochloride] | > 6.52
8 | NCc1cc(NC(=O)c2cccc(C(=O)N3CC[C@H](O)C3)c2)nc(C(F)(F)F)c1 [Compound 1-241, (S)—N-(4-(Aminomethyl)-6-(trifluoromethyl)pyridin-2-yl)-3-(3-hydroxypyrrolidine-1-carbonyl)benzamide trifluoroacetate] | > 6.52
9 | NCc1cc(Oc2cccc(C(=O)NCc3ccc(F)cc3)c2)nc(C(F)(F)F)c1 [Compound 1-9, 3-((4-(Aminomethyl)-6-(trifluoromethyl)pyridin-2-yl)oxy)-N-(4-fluorobenzyl)benzamide hydrochloride] | > 6.52
10 | NCc1cc(OCc2cccc(C(=O)N3C[C@@H](O)[C@H](F)C3)c2)nc(C(F)(F)F)c1 (racemic) [Compound 1-36, Racemic-trans-(3-(((4-(aminomethyl)-6-(trifluoromethyl)pyridin-2-yl)oxy)methyl)phenyl)(3-fluoro-4-hydroxypyrrolidin-1-yl)methanone hydrochloride] | > 6.52
11 | NCc1cc(Oc2cccc3c2CCC(=O)N3CCO)nc(C(F)(F)F)c1 [Compound 1-60, 5-((4-(Aminomethyl)-6-(trifluoromethyl)pyridin-2-yl)oxy)-1-(2-hydroxyethyl)-3,4-dihydroquinolin-2(1H)-one hydrochloride] | 6.00 to 6.52
12 | NCc1cc(OC[C@H]2CCCN(C(=O)Nc3ccccc3)C2)nc(C(F)(F)F)c1 [Compound 1-45, (S)-3-(((4-(Aminomethyl)-6-(trifluoromethyl)pyridin-2-yl)oxy)methyl)-N-phenylpiperidine-1-carboxamide trifluoroacetate] | 6.00 to 6.52
13 | NCc1cc(O[C@H]2CCN(C(=O)Nc3ccccc3)C2)nc(C(F)(F)F)c1 [Compound 1-40, (S)-3-((4-(Aminomethyl)-6-(trifluoromethyl)pyridin-2-yl)oxy)-N-phenylpyrrolidine-1-carboxamide trifluoroacetate] | > 6.52

More lines, now with the values ahead:

Row | pIC50 | SMILES
14 | > 6.52 | CS(=O)(=O)CCNC(=O)c1cncc(Oc2cc(CN)cc(C(F)(F)F)n2)c1 [Compound 1-53, 5-((4-(Aminomethyl)-6-(trifluoromethyl)pyridin-2-yl)oxy)-N-(2-(methylsulfonyl)ethyl)nicotinamide hydrochloride]
15 | > 6.52 | C#CCCCCNC(=O)c1cccc(Oc2cc(CN)cc(C(F)(F)F)n2)c1 [Compound 1-216, 3-((4-(Aminomethyl)-6-(trifluoromethyl)pyridin-2-yl)oxy)-N-(hex-5-yn-1-yl)benzamide trifluoroacetate]
16 | > 6.52 | NCc1cc(Oc2cccc(C(=O)N3C[C@@H](F)[C@@H](O)C3)c2)nc(C(F)(F)F)c1 (single isomer, unassigned) [Compound 1-251, (R,S) or (S,R)-cis-(3-((4-(Aminomethyl)-6-(trifluoromethyl)pyridin-2-yl)oxy)phenyl)(3-fluoro-4-hydroxypyrrolidin-1-yl)methanone hydrochloride]
17 | > 6.52 | NCc1cc(O[C@H]2CCCN(C(=O)c3cccnc3)C2)nc(C(F)(F)F)c1 [Compound 1-49, (S)-(3-((4-(Aminomethyl)-6-(trifluoromethyl)pyridin-2-yl)oxy)piperidin-1-yl)(pyridin-3-yl)methanone trifluoroacetate]
18 | > 6.52 | C#C[C@@H](CC(=O)OC)NC(=O)c1cccc(Oc2cc(CN)cc(C(F)(F)F)n2)c1 [Compound 1-222, Methyl (R)-3-(3-((4-(aminomethyl)-6-(trifluoromethyl)pyridin-2-yl)oxy)benzamido)pent-4-ynoate hydrochloride]
19 | > 6.52 | CCc1cccc(NC(=O)c2cccc(Oc3cc(CN)cc(C(F)(F)F)n3)c2)c1 [Compound 1-245, 3-((4-(Aminomethyl)-6-(trifluoromethyl)pyridin-2-yl)oxy)-N-(3-ethylphenyl)benzamide hydrochloride]
20 | 6.00 to 6.52 | C#C[C@H](CC(=O)O)NC(=O)c1cccc(Oc2cc(CN)cc(C(F)(F)F)n2)c1 [Compound 1-221, (S)-3-(3-((4-(aminomethyl)-6-(trifluoromethyl)pyridin-2-yl)oxy)benzamido)pent-4-ynoic acid]
21 | > 6.52 | C#C[C@H](CC(=O)OC)NC(=O)c1cccc(Oc2cc(CN)cc(C(F)(F)F)n2)c1 [Compound 1-220, Methyl (S)-3-(3-((4-(aminomethyl)-6-(trifluoromethyl)pyridin-2-yl)oxy)benzamido)pent-4-ynoate]
22 | > 6.52 | NCc1cc(Oc2cccc(C(=O)NC3COC3)c2)nc(C(F)(F)F)c1 [Compound 1-200, 3-((4-(Aminomethyl)-6-(trifluoromethyl)pyridin-2-yl)oxy)-N-(oxetan-3-yl)benzamide trifluoroacetate]
23 | > 6.52 | N#CCCNC(=O)c1cccc(Oc2cc(CN)cc(C(F)(F)F)n2)c1 [Compound 1-198, 3-((4-(Aminomethyl)-6-(trifluoromethyl)pyridin-2-yl)oxy)-N-(2-cyanoethyl)benzamide hydrochloride]
24 | > 6.52 | NCc1cc(Oc2cccc(C(=O)N3C[C@@H](F)[C@@H](O)C3)c2)nc(C(F)(F)F)c1 (single isomer, unassigned) [Compound 1-250, (R,S) or (S,R)-cis-(3-((4-(Aminomethyl)-6-(trifluoromethyl)pyridin-2-yl)oxy)phenyl)(3-fluoro-4-hydroxypyrrolidin-1-yl)methanone hydrochloride]
25 | > 6.52 | C#CCNC(=O)c1cccc(Oc2cc(CN)cc(C(F)(F)F)n2)c1 [Compound 1-248, 3-((4-(Aminomethyl)-6-(trifluoromethyl)pyridin-2-yl)oxy)-N-(prop-2-yn-1-yl)benzamide hydrochloride]
26 | > 6.52 | NCc1cc(Oc2cccc(C(=O)NCCS(N)(=O)=O)c2)nc(C(F)(F)F)c1 [Compound 1-34, 3-((4-(Aminomethyl)-6-(trifluoromethyl)pyridin-2-yl)oxy)-N-(2-sulfamoylethyl)benzamide hydrochloride]
27 | > 6.52 | NCc1cc(Oc2cccc(C(=O)N[C@H]3CCC[C@H]3O)c2)nc(C(F)(F)F)c1 [Compound 1-210, 3-((4-(Aminomethyl)-6-(trifluoromethyl)pyridin-2-yl)oxy)-N-((1S,2R)-2-hydroxycyclopentyl)benzamide hydrochloride]
28 | > 6.52 | NCc1cc(Oc2cccc(C(=O)Nc3ncco3)c2)nc(C(F)(F)F)c1 [Compound 1-227, 3-((4-(Aminomethyl)-6-(trifluoromethyl)pyridin-2-yl)oxy)-N-(oxazol-2-yl)benzamide hydrochloride]
29 | > 6.52 | CS(=O)(=O)CCNC(=O)c1cccc(CNc2cc(CN)cc(C(F)(F)F)n2)c1 [Compound 1-106, 3-(((4-(Aminomethyl)-6-(trifluoromethyl)pyridin-2-yl)amino)methyl)-N-(2-(methylsulfonyl)ethyl)benzamide hydrochloride]
30 | > 6.52 | NCc1cc(Oc2ccnc(C(=O)Nc3ccccc3)c2)nc(C(F)(F)F)c1 [Compound 1-252, 4-((4-(Aminomethyl)-6-(trifluoromethyl)pyridin-2-yl)oxy)-N-phenylpicolinamide hydrochloride]
31 | > 6.52 | NCc1cc(Oc2cncc(C(=O)N3C[C@@H](O)[C@H](F)C3)c2)nc(C(F)(F)F)c1 (racemic) [Compound 1-55, Racemic-trans-(5-((4-(aminomethyl)-6-(trifluoromethyl)pyridin-2-yl)oxy)pyridin-3-yl)(-3-fluoro-4-hydroxypyrrolidin-1-yl)methanone hydrochloride]
32 | > 6.52 | CONC(=O)c1cccc(Oc2cc(CN)cc(C(F)(F)F)n2)c1 [Compound 1-219, 3-((4-(Aminomethyl)-6-(trifluoromethyl)pyridin-2-yl)oxy)-N-methoxybenzamide hydrochloride]
33 | 6.00 to 6.52 | NCc1cc(Oc2cccc(C(=O)N3CCC[C@@H]3C(=O)O)c2)nc(C(F)(F)F)c1 [Compound 1-25, (R)-1-(3-((4-(Aminomethyl)-6-(trifluoromethyl)pyridin-2-yl)oxy)benzoyl)pyrrolidine-2-carboxylic acid hydrochloride]
